pEC50, pIC50: −log10 of the molar value.
Key:
caspase-3/7 = experiment: Activation of apoptosis, Caspase-Glo 3/7 in HG-1 cells; format: cell-based; settings: caspase-3/7 activation, 24 h
Experimental: Activation of caspase-3/7 signal following treatment with test compounds was carried out using a Caspase-Glo® 3/7 kit (Promega). In brief, HG-1 cells were seeded at a concentration of 1000 cells/well in 50 μl medium into 96-well plates and incubated for 24 h under the conditions described previously. Compounds at various concentrations were then added to the wells (at all final concentrations 0.5% DMSO) and incubated for a further 24 h period. The plates were subsequently removed from the incubator and allowed to equilibrate to room temperature, after which 50 μl Caspase-Glo reagent was added to all wells, the plate shaken at 300 rpm for 30 s, and luminescence measured after a 30 min incubation period on an Envision HTS (PerkinElmer).

[1] = test system: HIF mediated transcription; experiment: Inhibition of activation of HIF mediated transcription under hypoxic conditions (CellSensor HRE-bla HCT-116); format: cell-based; settings: Homo sapiens; HRE-bla HCT-116 cells, deferoxamine-induced hypoxia, 24 h
Experimental: Inhibition of an activated HIF signaling response under chemically-induced hypoxic conditions due to compound treatment was determined using the CellSensor® HRE-bla HCT-116 stably transfected reporter cell line from Invitrogen according to the manufacturer's instructions. HIF is a transcriptional factor composed of the constitutively expressed HIF1β subunit and one of three HIFα subunits (HIF1α, HIF2α, HIF3α). This assay is responsive towards HIFa activity in general. In one example, HIF-1, when stabilized by hypoxic conditions, upregulates several genes to promote cell survival in low-oxygen conditions. These include glycolysis enzymes, which allow ATP synthesis in an oxygen-independent manner, and vascular endothelial growth factor (VEGF), which promotes angiogenesis. HIF-1 acts by binding to HIF-responsive elements (HREs) in promoters that generally contain the sequence NCGTG.
Cells were maintained as described previously and seeded into 384-well, clear-bottom plates (Corning 3712) at 15000 cells/well in 32 μl assay medium (Opti-MEM [Invitrogen], 0.5% FBS, 100 U/ml penicillin, 100 μg/ml streptomycin, 0.1 mM non-essential amino acids [NEAA], 1 mM sodium pyruvate, 5 mM HEPES [pH 7.3]). Following a 2 h incubation period, compounds (4 μl) were subsequently added to the cells at 10× concentrations in 5% DMSO and incubated under normal conditions for 30 min. To induce hypoxic conditions, 4 μl of a 2 mM deferoxamine (DFO) solution was added to the cells followed by 24 h incubation under standard assay conditions (as described). Control wells included wells containing only medium (no cells) and wells treated with 0.5% DMSO instead of compound.
Prior to the readout, the Substrate Loading Solution was prepared as described in the manufacturer's protocol and 10 μl added to each well. Following a further 2 h incubation period at room temperature and in the dark, fluorescence was measured at two wavelengths (blue channel: ex. 409 nm, em. 460 nm; green channel: ex. 409 nm, em. 530 nm) on a PerkinElmer Envision HTS. For the analysis, the average signal of the cell-free wells at 460 nm and 530 nm was first subtracted from the blue and green channel data, respectively. The blue/green emission ratios were then calculated for each well, dividing the background-corrected blue emission values by the background-corrected green emission values. IC50 values were determined from these ratios using GraphPad Prism (Prism 5, GraphPad software, Inc.).

HG1 cells = experiment: Cell proliferation assay (ATPlite), HG-1; format: cell-based; settings: inhibition of cell proliferation, 72 h
Experimental: MCF-7 human breast adenocarcinoma cells and HL-60 acute promyelocytic leukaemia cells were obtained from ATCC (LGC Promochem). HG-1 multiple myeloma cells were obtained from Dr. D. Hose (DKFZ Heidelberg). The CellSensor® HRE-bla HCT116 cell line (colorectal carcinoma) was obtained from Invitrogen.
Cells were grown under humidified 95% air, 5% CO2 at 37° C. in Dulbecco's modified Eagle's medium (DMEM: MCF-7) or RPMI 1640 medium (RPMI: HL-60, HG-1) supplemented with 10% fetal bovine serum (FBS), 100 U/ml penicillin and 100 μg/ml streptomycin, 2 mM L-glutamine, and 2 ng/ml IL-6 (for the HG-1 cell line only). The HCT116 cell line was grown under the same atmospheric conditions in McCoy's 5A medium supplemented with 10% FBS and penicillin/streptomycin as above, in addition to blasticidin as a selection marker at a final concentration of 5 μg/ml.
Cell proliferation experiments were carried out in 96-well tissue culture plates with seeding of 2000 cells/well (MCF-7) or 1000 cells/well (HL-60, HG-1) in 100 μl of the relevant medium. Cells were subsequently incubated under the conditions mentioned for 24 h prior to addition of compounds.
For the determination of compound EC50 values, 10 μl compounds at 11× concentrations in 5.5% DMSO were added to the wells at various concentrations yielding a final constant percentage of 0.5% DMSO at the desired 1× compound concentration. As a positive control, cells were treated with 5.5% DMSO. The cells were then incubated for a further 72 h prior to the measurement.
To determine the degree of inhibition of cell proliferation, cells were treated with ATPlite solution according to the manufacturer's instructions (PerkinElmer, ATPlite 1-step Luminescence ATP Detection Assay System) and luciferase readout measured on an Envision HTS multilabel plate reader (PerkinElmer) in luminescence mode according to established protocols. Raw data were imported into an ActivityBase database (IDBS, ID Business Solutions) and EC50 values calculated using the IDBS program ActivityBase XE. Table 2A and 2B show the IC50 values obtained in the above-outlined cell proliferation assay for exemplary compounds of the invention.

MCF7 cells = experiment: Cell proliferation assay (ATPlite), MCF-7; format: cell-based, human; settings: Homo sapiens, inhibition of cell proliferation, 72 h
Outline: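 Cells seeded (MCF-7 2000/well, HG-1 1000/well in RPMI with 2 ng/ml IL-6), then after 24 h exposed to compound at 0.5% DMSO final for 72 h. Proliferation read as ATP luminescence (ATPlite); EC50 calculated from the dose-response.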

tubulin = molecular target: T1, tubulin (Sus scrofa, UniProt P02550+P02554); experiment: Inhibition of in vitro tubulin polymerization; format: biochemical, porcine; settings: final absorbance 340 nm at 90 min
T1 construct: prepared in-house from porcine brain using a standard procedure involving cycles of polymerization/de-polymerization; from tissue; host or cells: porcine brain
T1 sequence (P02550 whole entry): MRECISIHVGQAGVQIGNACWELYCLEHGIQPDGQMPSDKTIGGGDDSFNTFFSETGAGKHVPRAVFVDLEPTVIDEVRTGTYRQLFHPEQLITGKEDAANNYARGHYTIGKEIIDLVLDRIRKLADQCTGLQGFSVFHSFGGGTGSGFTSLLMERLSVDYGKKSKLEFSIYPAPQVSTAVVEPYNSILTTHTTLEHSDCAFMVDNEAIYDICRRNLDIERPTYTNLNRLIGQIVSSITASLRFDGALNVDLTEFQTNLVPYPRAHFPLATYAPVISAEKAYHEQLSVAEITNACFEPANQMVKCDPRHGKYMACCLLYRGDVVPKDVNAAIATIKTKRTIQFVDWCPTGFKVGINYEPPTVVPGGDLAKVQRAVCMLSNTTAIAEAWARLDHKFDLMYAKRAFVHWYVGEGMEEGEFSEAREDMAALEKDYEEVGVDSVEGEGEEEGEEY
T1 sequence (P02554 whole entry): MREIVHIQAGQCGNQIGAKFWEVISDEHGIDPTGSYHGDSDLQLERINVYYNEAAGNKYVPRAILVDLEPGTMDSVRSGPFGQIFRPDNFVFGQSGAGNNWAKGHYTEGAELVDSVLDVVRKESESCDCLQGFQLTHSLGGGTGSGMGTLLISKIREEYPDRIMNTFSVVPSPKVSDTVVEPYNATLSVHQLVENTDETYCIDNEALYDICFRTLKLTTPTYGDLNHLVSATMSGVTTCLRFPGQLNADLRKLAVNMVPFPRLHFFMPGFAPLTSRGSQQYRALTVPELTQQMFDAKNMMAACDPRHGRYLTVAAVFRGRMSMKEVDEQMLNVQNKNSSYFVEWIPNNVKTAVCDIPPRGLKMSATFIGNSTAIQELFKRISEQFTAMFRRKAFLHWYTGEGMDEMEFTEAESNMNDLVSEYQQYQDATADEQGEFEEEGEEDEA
Experimental: To assess the degree of inhibition of in vitro tubulin polymerization, a tubulin solution (prepared in-house from porcine brain using a standard procedure involving cycles of polymerization/de-polymerization, see Castoldi & Popov (2003) Protein Expr. Purif. 32(1): 83-88) was incubated with varying concentrations of compounds under polymerizing conditions and kinetic experiments performed to determine the amount of polymerization (as measured by changes in OD at 340 nm) taking place over a 90 min period.
Compound solutions were diluted in double-distilled water to yield final 10× solutions containing 5% DMSO. 5 μl solutions were then added to the wells on a 384-well clear-bottom plate (Corning #3711, Corning Inc.) in preparation for the addition of tubulin. The tubulin solution (19.6 mg/ml, in 80 mM K-PIPES [pH 6.8], 1 mM MgCl2, 1 mM EGTA) was re-suspended to a final concentration of 4 mg/ml with ice cold G-PEM buffer (80 mM PIPES [pH 6.8], 2 mM MgCl2, 0.5 mM EGTA, 10% glycerol, 1 mM GTP) and maintained on ice for at least 1 min. 50 μl was then added to the pre-dispensed compound solutions, the plate orbital shaken on a medium setting for 5 s, and the first measurement begun immediately.
Experiments were carried out on a Safire^2™ monochromator (Tecan) preset to a stable temperature of 37° C.; the degree of polymerization was determined by measuring the absorbance of the solutions at 340 nm every minute over the 90 min cycle. Reported inhibition values were based on the final absorbance at 90 min and calculated with reference to a vehicle control (0.5% DMSO) using the minimum and maximum signals obtained for this sample.

[2] = test system: estrogen receptor (ER)-mediated transcriptional activity; experiment: Inhibition of estrogen receptor (ER) signaling, ERE-tk-luc transfection assay in MCF-7 cells; format: cell-based; settings: Homo sapiens, MCF7, ERE-tk-luc luciferase readout, 24 h
Experimental: To determine the effect of the compounds on estrogen receptor (ER)-mediated transcriptional activity a transfection assay using the MCF-7 cell line was performed. A luciferase-coupled ERE-tk-luc construct was obtained from Dr. G. Reid (EMBL).
In brief, MCF-7 cells were maintained as described previously and seeded on the first experimental day at a concentration of 3500 cells/well in 100 μl medium and incubated under standard conditions for 24 h. Following this initial incubation period, transfection was carried out using 5 ng of the ERE-tk-luc construct (per well) and Exgene 500 transfection reagent (Fermentas) in a final buffered solution containing 150 mM NaCl and 20 mM Tris pH 8.4. The plates were then maintained for 3-4 hours until cell culture conditions in the incubator before compounds were added at 11× concentrations to yield the final desired compound concentrations in 0.5% DMSO (in the same manner as for the proliferation assays described previously).
After an additional 24 h incubation period the degree of inhibition of ER-signaling was determined via a luciferase readout. Cells were treated with Britelite™ plus solution according to the manufacturer's instructions (PerkinElmer, britelite plus, Ultra-High Sensitivity Luminescence Reporter Gene Assay System) and luciferase levels measured on an Envision HTS multilabel plate reader (PerkinElmer) in luminescence mode according to established protocols. Raw data were imported into an ActivityBase database (IDBS, ID Business Solutions) and IC50 values calculated using the IDBS program ActivityBase XE.

pEC50 (caspase-3/7) | pEC50 [1] | pEC50 (MCF7 cells) | inhibition at 10 µM (tubulin) [%] | pIC50 [2] | SMILES | pEC50 (HG1 cells)
> 6.30 | > 6.30 | > 6.30 | – | – | COc1ccc(S(=O)(=O)Nc2cc(-c3ccc(C#N)s3)ccc2C)cc1 [Example 51, N-[5-(5-Cyano-thiophen-2-yl)-2-methyl-phenyl]-4-methoxy-benzenesulfonamide] | > 6.30
> 6.30 | – | > 6.30 | < 20 | > 6.30 | Cc1ccc(S(=O)(=O)Nc2cc(-c3ccc(C#N)cc3)ccc2C)cc1 [Example 60, N-(4′-Cyano-4-methyl-biphenyl-3-yl)-4-methyl-benzenesulfonamide] | –
> 6.30 | – | > 6.30 | – | > 6.30 | Cc1ccc(S(=O)(=O)Nc2cc(-c3ccc(C#N)s3)ccc2C)cc1 [Example 47, N-[5-(5-Cyano-thiophen-2-yl)-2-methyl-phenyl]-4-methyl-benzenesulfonamide] | > 6.30

— US20120095024A1, “TOLUIDINE SULFONAMIDES AND THEIR USE” (Elara Pharmaceuticals GmbH, priority 2008, published 2012)
